This is an account of results in paper PMC9697135 (International Journal of Molecular Sciences, 2022).

In series [1] the target is human nSMase2. To be noted: cited from earlier work; for IC50: nSMase2 inhibition.
Series [2] concerns ZIKV. Nature of the series: Antiviral activity, virus yield by plaque assay (ZIKV). The format is cell-based. To be noted: Zika virus, 24 h, read-out: EC50 ZIKV.
Series [3] concerns WNV. The experiment in a line: Antiviral activity, virus yield by plaque assay (WNV). The format is cell-based. To be noted: West Nile virus, MOI 1 PFU/cell, virus yield at 24 h post-infection.
Series [4] in a line: in vitro. The note with it: African green monkey.
A short description of series [5]: in vitro. To be noted: human.

Where two headings read alike, the source gives them in different places. Some results are limits rather than exact numbers.

In the case of `COc1cc(O)c(C(=O)O)c(-c2cc(O)c(O)cc2C)c1` [Altenusin], the Ki (commonly a measure of affinity in units of concentration, obtained from inhibition or displacement) in series [1] (non-competitive inhibitor of human nSMase2) is 20000 nM.
`Oc1c(OC2CCCC2)cc(-c2nc(-c3cccs3)c(-c3ccccc3)[nH]2)cc1OC1CCCC1` [compound 10]: the IC50 (commonly the concentration at which inhibition is half-maximal) in series [1] (SAR of DPTIP derivatives) was 120 nM.
In the case of `COc1cc(-c2nc(-c3cccs3)c(-c3ccccc3)[nH]2)cc(OC)c1OC` [compound 8], in series [1] (SAR of DPTIP derivatives), the “nSMase2 inhibitory activity (in words)” value was “completely inactive” and the IC50 is greater than 100000 nM.
For `CC(C)(C)Oc1cc(-c2nc(-c3cccs3)c(-c3ccccc3)[nH]2)cc(OC(C)(C)C)c1O` [compound 11], in series [1] (SAR of DPTIP derivatives), the 50% inhibitory concentration (IC50) was 520 nM.
Turning to `COc1cc(-c2nc(-c3cccs3)c(-c3ccccc3)[nH]2)cc(OC)c1O` [DPTIP], the 50% effective concentration (EC50) (commonly the concentration at which the effect is half-maximal) in series [2] (HeLa) came to 1840 nM; in series [2] (Vero) it was 1560 nM; in series [3] (HeLa cells) it was 2810 nM; in series [3] (Vero cells), 260 nM. Further, the CC50 is 54800 nM in series [4] and 15100 nM in series [5].
Turning to `COc1cc(-c2nc(-c3cccs3)c(-c3ccccc3)n2C)cc(OC)c1O` [compound 9], the half-inhibitory concentration (IC50) in series [1] (SAR of DPTIP derivatives) was 40000 nM.
